From patent US20250177473A1, “PEPTIDE REGULATORS OF METABOLISM” (Metabico, Inc., priority 2022, published 2025)
Residues, ends and D or L forms follow the SMILES beside them.

Tests used:
[1] = target: T1, M2 muscarinic receptor (Homo sapiens, UniProt P08172); assay: Full Functional GPCR Panel: M2 muscarinic receptor, cAMP; type: cell-based; details: EPSI 100 μM; vs 3 μM acetylcholine; CHO cells expressing M2
T1 construct: host or cells: CHO
T1 sequence (P08172 1-466): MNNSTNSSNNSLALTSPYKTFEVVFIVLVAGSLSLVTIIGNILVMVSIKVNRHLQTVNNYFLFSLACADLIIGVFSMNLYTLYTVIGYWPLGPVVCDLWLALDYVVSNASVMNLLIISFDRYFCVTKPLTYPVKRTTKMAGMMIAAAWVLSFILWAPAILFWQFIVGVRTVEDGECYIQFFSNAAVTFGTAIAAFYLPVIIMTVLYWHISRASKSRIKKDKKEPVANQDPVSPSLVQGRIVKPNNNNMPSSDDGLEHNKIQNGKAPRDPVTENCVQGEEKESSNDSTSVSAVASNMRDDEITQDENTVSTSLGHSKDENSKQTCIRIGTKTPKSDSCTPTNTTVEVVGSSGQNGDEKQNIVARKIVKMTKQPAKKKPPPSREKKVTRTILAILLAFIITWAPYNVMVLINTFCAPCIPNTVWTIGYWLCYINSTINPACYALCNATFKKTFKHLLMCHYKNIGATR
Procedure: (§1) EPSI peptide was tested in the dose of 100 μM in 326 functional assays (163 GPCRs both in agonist and antagonist modes) combined in Full Functional GPCR Panel (item P343) provided by Eurofins Cerep SA.
(§2) Each cell-based assay was performed by application of the peptide to cell lines expressing individual receptors with subsequent measuring Ca2+, IP1, or cAMP depending on the receptor type. In the case of antagonist mode assays, the peptide was applied together with the control agonist.
(§3) Cellular agonist effect was calculated as a % of control response to a known reference agonist for each target and cellular antagonist effect was calculated as a % inhibition of control reference agonist response for each target.

[2] = target: T2, NPSR1 (the receptor of neuropeptide S) (Homo sapiens, UniProt Q6W5P4); assay: Full Functional GPCR Panel (Eurofins Cerep): NPSR1, intracellular Ca2+; type: cell-based; details: EPSI 100 μM; 10 nM NPS; HEK-293 cells expressing NPSR1
T2 construct: host or cells: HEK-293
T2 sequence (Q6W5P4 1-371): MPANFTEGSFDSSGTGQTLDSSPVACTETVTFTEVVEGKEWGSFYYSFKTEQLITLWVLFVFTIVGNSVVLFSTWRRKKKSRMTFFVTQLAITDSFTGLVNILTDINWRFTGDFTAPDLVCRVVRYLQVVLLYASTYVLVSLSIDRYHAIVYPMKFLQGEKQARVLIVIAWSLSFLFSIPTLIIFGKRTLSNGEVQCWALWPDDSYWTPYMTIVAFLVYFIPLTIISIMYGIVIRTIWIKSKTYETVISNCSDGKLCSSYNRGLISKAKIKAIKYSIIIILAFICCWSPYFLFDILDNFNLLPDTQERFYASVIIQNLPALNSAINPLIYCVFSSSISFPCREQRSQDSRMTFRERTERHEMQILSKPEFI
Procedure: as §1, §2, §3
EPSI peptide induced activating effect provided by 10 nM of control agonist NPS (neuropeptide S) by 56.4±8.5% in HEK-293 cells expressing NPSR1 (the receptor of neuropeptide S). Activation of NPSR1 was measured by the changes in intracellular Ca2+ levels.

[3] = target: T3, LPAR3 (Homo sapiens, UniProt Q9UBY5); assay: Full Functional GPCR Panel: LPAR3; type: cell-based; details: EPSI 100 μM; 30 nM Lysophosphatidic acid; CHO cells expressing LPAR3
T3 construct: host or cells: CHO
T3 sequence (Q9UBY5 1-353): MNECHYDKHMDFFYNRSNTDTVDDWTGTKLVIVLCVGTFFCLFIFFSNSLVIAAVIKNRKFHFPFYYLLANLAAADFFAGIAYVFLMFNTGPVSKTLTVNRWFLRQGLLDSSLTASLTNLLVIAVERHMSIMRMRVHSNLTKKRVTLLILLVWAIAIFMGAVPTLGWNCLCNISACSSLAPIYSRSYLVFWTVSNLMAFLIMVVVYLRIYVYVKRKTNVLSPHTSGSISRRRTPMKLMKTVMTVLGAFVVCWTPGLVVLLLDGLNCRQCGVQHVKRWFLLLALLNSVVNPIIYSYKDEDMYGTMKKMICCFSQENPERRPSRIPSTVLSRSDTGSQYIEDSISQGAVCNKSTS
Procedure: as §1, §2, §3
EPSI peptide induced activating effect provided by 30 nM of control agonist Lysophosphatidic acid by 29.2±3.0% in CHO cells expressing LPAR3.

[4] = target: T4, GPR109A receptor (Homo sapiens, UniProt Q8TDS4); assay: Full Functional GPCR Panel: GPR109A antagonist mode; type: cell-based; details: EPSI 100 μM; 300 nM nicotinic acid; RBL cells expressing GPR109A
T4 construct: host or cells: RBL
T4 sequence (Q8TDS4 whole entry): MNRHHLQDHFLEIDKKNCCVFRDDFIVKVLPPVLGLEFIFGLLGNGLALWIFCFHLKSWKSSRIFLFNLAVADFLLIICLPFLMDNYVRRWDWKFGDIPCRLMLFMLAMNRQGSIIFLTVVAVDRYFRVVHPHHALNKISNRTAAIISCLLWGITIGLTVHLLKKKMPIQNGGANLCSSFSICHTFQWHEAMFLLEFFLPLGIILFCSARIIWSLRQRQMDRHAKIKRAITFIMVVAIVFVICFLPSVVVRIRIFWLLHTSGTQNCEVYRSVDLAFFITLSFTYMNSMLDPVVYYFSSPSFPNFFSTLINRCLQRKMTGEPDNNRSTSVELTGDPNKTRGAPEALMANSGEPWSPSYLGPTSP
Procedure: as §1, §2, §3

[5] = target: T5, FFAR2 (GPR43) receptor (Homo sapiens, UniProt O15552); assay: FFAR2 cell-based functional antagonist assay, intracellular Ca2+; details: EPSI 100 μM; 1 mM sodium acetate; HEK-293 cells expressing FFAR2
T5 construct: host or cells: HEK-293
T5 sequence (O15552 1-330): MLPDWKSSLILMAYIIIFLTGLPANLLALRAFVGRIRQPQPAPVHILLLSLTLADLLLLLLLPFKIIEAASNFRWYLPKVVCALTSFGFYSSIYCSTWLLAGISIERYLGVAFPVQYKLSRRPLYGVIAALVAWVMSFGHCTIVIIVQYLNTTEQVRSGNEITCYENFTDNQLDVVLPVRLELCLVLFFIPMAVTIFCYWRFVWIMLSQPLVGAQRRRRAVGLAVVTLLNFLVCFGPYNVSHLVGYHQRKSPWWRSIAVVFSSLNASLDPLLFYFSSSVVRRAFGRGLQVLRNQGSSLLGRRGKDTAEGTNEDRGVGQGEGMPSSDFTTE
Procedure: as §1, §2, §3
EPSI peptide acted as antagonist of FFAR2 (GPR43) receptor reducing by 28.0±1.5% the signal induced by 1 mM of sodium acetate in HEK-293 cells expressing FFAR2.
EPSI peptide was tested in the doses of 0.03, 0.16, 4, and 20 μM in FFAR2 cell-based functional antagonistic assay provided by Eurofins Cerep SA. The assay was performed in HEK-293 cell line expressing FFAR2 and stimulated with 1 mM sodium acetate (control reference agonist) for FFAR2 signaling induction. Fluorimetric measurement of intracellular Ca2+ levels was performed after the peptide application. Cellular antagonist effect was calculated as a % inhibition of control reference agonist response.

[6] = system: C57BL/6 mice on a high-fat diet; assay: Tolerability observations in HFD mice study; type: in vivo, mouse; details: EPSI 5 mg/kg i.n. and i.p.
Procedure: Groups of 10 animals were formed from the existing groups from Stage 2, with similar mean body weight (Table 6). The animals' bodyweight was monitored three times a week, water, and feed consumption—weekly. After the last treatment, the animals were euthanized for necropsy and their blood collected. The internal organs were examined for the presence of macro damage and weighed. The adipose tissue surrounding the epididymis was evaluated as a marker of obesity in animals. For histological examination, samples of adipose tissue and liver tissue were fixed in 10% formalin solution for further histological analysis.
During necropsy, the body's external state, internal surfaces, the cranial cavity, chest, abdominal and pelvic cavities with organs and tissues located in them, the neck with organs and tissues, the skeleton, and the musculoskeletal system were examined. The organs and tissues were fixed in 10% formalin. Liver and adipose tissue samples were weighed and stored in 10% formalin for subsequent histological analysis.

[7] = system: pStat3 (Y705) in the hypothalamus; assay: pStat3 (Y705) immunohistochemistry of mouse hypothalamus after administration; type: in vivo, C57Bl/6J mice; details: 60 minutes after administration; EPSI 10 mg/kg intranasally; leptin 5 mg/mL intraperitoneally; 24 h food deprivation
Procedure: Fifteen C57Bl/6J 15 weeks old mice (5 animals per group) were used in the study.
We performed food deprivation 24 hours prior to the administration of the compounds. The animals of the experimental group were administered with 10 mg/kg EPSI intranasally (EPSI was dissolved in 10 μL of saline per mouse, 5 μL in each nostril). Positive control animals were administered with 5 mg/mL leptin intraperitoneally (leptin was dissolved in 100 μL of saline per mouse). Negative control mice were administered with 100 μL of saline intraperitoneally. The mice were euthanized 60 minutes after the administration of the compounds.
Narcosis was performed using the combination of Zoletil (20 mg/kg) and Rometar (5 mg/kg). Next, transcardial perfusion was performed with saline to wash out the blood, then with a 10% formalin solution. After complete fixation, the animal bodies were decapitated, the brain was extracted and additionally fixed in 10% formalin, after which it was washed in PBS 3 times for 30 minutes and placed overnight in a 30% sucrose solution in PBS until the tissue was completely impregnated.
The brain samples were placed in a mold, and poured with the freezing medium. […]
The images were received using an inverted microscope Nikon Eclipse Ni. The number of positive cells was calculated using ImageJ software. […]

[8] = system: male mice of CBA and C57Bl/6 hybrids, food deprived 12 hours; assay: Home cage feed consumption test; type: in vivo, mouse; details: leptin 1 mg/kg i.p. before testing
Procedure: The work was performed on 30 mature male mice of the first generation of CBA and C57Bl/6 hybrids weighing 22-24 grams. The animals were divided into treatment groups (Table 1).
Solutions for intranasal (i.n.) administration were prepared by dissolving the peptide in saline. The volume of i.n. administration: 1 μl per 1 g of animal weight. Solutions for intraperitoneal (i.p.) administration were prepared by dissolving the drug in saline. The volume of […]. administration: 10 μl per 1 g of animal weight. Solutions were prepared directly on the day of the experiment before the experiment.
All manipulations with animals were performed at the end of the adaptation period of 14 days.
Day 1—Adaptation of animals to the home cage food consumption test. In the evening, animals were deprived of food for 12 hours (overnight).
Day 2—Administration of the test substances and the food consumption test in a home cage for 1.5 hours. Before and after the test, the animals were weighed.
This test was performed to assess the appetite of animals after the treatment with tested compounds. The test was performed in 2 days. […]
Statistical data processing was carried out using nonparametric criteria (Mann-Whitney) for samples with a distribution other than normal. Normally distributed data were analyzed with one-way ANOVA (only Treatment factor) or repeated measures ANOVA (dynamics) with post hoc Fisher test. […]

What does the source list for `CC[C@H](C)[C@H](NC(=O)[C@H](CO)NC(=O)[C@@H]1CCCN1C(=O)[C@@H](N)CCC(=O)O)C(=O)O` [EPSI] (H-EPSI-OH)?
reduction of cAMP levels, efficiency compared to control agonist [1]: 26.8±6.8%; induction of activating effect of control agonist NPS (intracellular Ca2+) [2]: 56.4±8.5%; induction of activating effect of control agonist Lysophosphatidic acid [3]: 29.2±3.0%; reduction of signal evoked by nicotinic acid (antagonist mode) [4]: 37.1±2.1%; reduction of signal induced by sodium acetate (antagonist mode) [5]: 28.0±1.5%; local irritating effect (nasal mucosa; abdominal wall skin and subcutaneous tissue) [6]: no local irritating effect; toxic effects throughout the experiment ([6]; up to 28 days): no toxic effects

Which results are given for leptin?
pStat3-positive cells in hypothalamic sections (ratio to total nuclei) [7]: 3%; amount of food consumed over 90 minutes vs control [8]: did not differ
